Measurements: patent publication US7507581B2, “Inhibition of pancreatic islet aggregation” (Synthecon, Inc., priority 2005, dated 2009)
Entries after “also recorded” stand apart in the source; their conditions may differ.

Columns and labels:
Type in all cases: cell-based
human pancreatic islets [1] = assay: Aggregation of high-density pancreatic islets in culture (RCCS bioreactor or petri dish)
Method: It is hypothesized that synthetic peptides containing the IKVAV peptide sequence (SEQ ID NO. 2) can inhibit the aggregation of islets cultures in the RCCS bioreactor. Experiments were performed to compare the aggregation of about 200-300 islets/ml cultured in the presence and absence of each peptide to be tested. Initial experiments added the peptide to the culture media in a small (10 ml) RCCS bioreactor vessel. It was realized that providing a large volume of culture media with sufficient concentrations of the PA22-2 peptide or another IKVAV-containing peptide component of laminin would be prohibitively expensive. Thus, the experimental protocol was altered as described below.
(§1) In each sample, the islets were allowed to settle at 1×g in a sterile centrifuge tube. Once the islets had settled, the supernatant was removed and replaced with 2 ml of media. Control samples of islets (Samples 2 and 4) were placed in the control media (i.e., CMRL-1066 media containing 10% bovine serum, 1% penicillin/streptomycin/amphotericin B, and 2 mM glutamine) and experimental samples of islets (Samples 3 and 5) were incubated with the control media to which 50 μg/ml IKVAV-containing peptide such as the PA22-2 (SEQ ID NO. 1) peptide had been added. The IKVAV-containing peptides are hereinafter referred to as laminin A chain peptide. […]
(§2) Samples 2 and 3 were transferred to standard culture dishes (petri dishes) at a cell density of approximately 200 islets/ml. […] After the Samples 2-5 had been cultured for 7 days, the islets were removed from the culture dish or RCCS bioreactor vessel and assessed for aggregation, apoptosis and ATP levels.
An aliquot of islets from each sample was fixed by washing the islets two times in phosphate buffered saline (PBS) and then transferring the washed samples to a 4% paraformaldehyde solution for 2 hours to fix the islets. […] The islets were analyzed for their, degree of aggregation by digitizing ten microscopic fields and measuring the cross sectional areas of the islets within each field with the image processing program NIH Image. […]

human pancreatic islets [2] = assay: H & E stained thin sections of cultured human islets; conditions: preincubated with peptide, 7 days in RCCS bioreactor; compared with petri dish control
Method: (§3) In each sample, the islets were allowed to settle at 1×g in a sterile centrifuge tube. Once the islets had settled, the supernatant was removed and replaced with 2 ml of media. Control samples of islets (Samples 2 and 4) were placed in the control media (i.e., CMRL-1066 media containing 10% bovine serum, 1% penicillin/streptomycin/amphotericin B, and 2 mM glutamine) and experimental samples of islets (Samples 3 and 5) were incubated with the control media to which 50 μg/ml IKVAV-containing peptide such as the PA22-2 (SEQ ID NO. 1) peptide had been added. The IKVAV-containing peptides are hereinafter referred to as laminin A chain peptide.
(§4) All four samples were gently mixed and placed in a humidified incubator for 3 hours at 37° C. At half hour intervals, the tubes containing the samples were gently inverted to prevent aggregation of the islet pellet.
(§5) Samples 2 and 3 were transferred to standard culture dishes (petri dishes) at a cell density of approximately 200 islets/ml. Samples 4 and 5 were transferred to 35 ml perfused RCCS bioreactor vessels at a cell density of approximately 200 islets/ml. All of the samples (Samples 2-5) were then cultured for 7 days. After the Samples 2-5 had been cultured for 7 days, the islets were removed from the culture dish or RCCS bioreactor vessel and assessed for aggregation, apoptosis and ATP levels. […]

[3] = tested on: caspase 3 activity in cultured human pancreatic islets; assay: Caspase 3 activity (apoptosis) in cultured human pancreatic islets
Method: as §3, §4
as §5, with “All of the samples (Samples 2-5) were then cultured for 7 days.” left out
Fifty microliters of the lysed cell supernatant from each sample was transferred into a microplate well. […] The free rhodamine was measured by fluorescence (excitation/emission-496/520 nm). The fluorescence was quantitated using arbitrary fluorescence units derived by normalizing the rhodamine fluorescence to the quantity of DNA in the islet sample, which is directly proportional to cell number.
Experiments were performed to compare islet caspase 3 activity in islets cultured in conventional petri dishes (labeled in FIG. 3 as Dish) with islets preincubated with the laminin A chain peptide PA22-2 and cultured in an RCCS bioreactor (labeled in FIG. 3 as RCCS+ laminin). […] The data from four experiments was analyzed by a one-way ANOVA. Differences between the groups were determined by the Student-Newman Keuls test.

human pancreatic islets [4] = assay: ATP levels in cultured human pancreatic islets (luciferin/luciferase luminescence)
Method: as §1, §2
Islet ATP levels were measured by luciferin/luciferase luminescence. […] The cells were pelleted by centrifugation and 10 μl of the lysed cell supernatant was placed in a luminescence multiwell plate with 90 μl of reaction solution (25 mM Tricine pH 7.8, 5 mM MgSO4, 0.1 mM EDTA, 0.1 mM sodium azide with 0.5 mM lucifirin, 1 mM DTT and 12.5 μg of firefly luciferase). […]
The data from four experiments was analyzed by a one-way ANOVA. […]

Q: With “CYS-SER-ARG-ALA-ARG-LYS-GLN-ALA-ALA-SER-ILE-LYS-VAL-ALA-VAL-SER-ALA-ASP-ARG (CSRARKQAASIKVAVSADR; laminin A chain) [PA22-2, 19 amino acid synthetic peptide containing residues 2091-2108 of the laminin A chain, IKVAV-containing]” as the substance, how does the aggregation inhibiting activity (human pancreatic islets [1]; peptide added to RCCS-cultured islets, cell density about 200-300 islets/ml) read?
A: showed substantial aggregation inhibiting activity

Q: And the “adherence of islets to petri dish” value (human pancreatic islets [1]; peptide left in the media during the entire culture period, petri dish)?
A: caused the petri dish control islets to adhere to the non-stick petri dishes

Q: And the “degree of aggregation of islets” value (human pancreatic islets [1]; preincubated 3 hours with 50 μg/ml peptide, then seven-day culture in RCCS bioreactor, compared with no peptide)?
A: lower degree of aggregation; also recorded: sufficient to prevent aggregation of the islets in the RCCS bioreactor; also recorded: beneficial in preventing islet aggregation

Q: And the “islet structure / membrane integrity (H & E thin sections)” value (human pancreatic islets [2])?
A: maintained their membrane integrity and appeared to be healthy and viable

Q: What about the “caspase 3 activity” value ([3]; Dish+ laminin: preincubated 3 hours with 50 μg/ml peptide, 7 days petri dish, vs Dish control (100%), n=4) of the same substance?
A: slightly lower caspase 3 activity but the values did not have a p value less than 0.05; also recorded: no significant effect on islet caspase 3 activity

Q: And the “caspase 3 activity” value ([3]; RCCS+ laminin (Sample 5): preincubated 3 hours with 50 μg/ml peptide, 7 days RCCS, vs RCCS-cultured islets without peptide (Sample 4))?
A: less caspase 3 activity than the RCCS-cultured islets of Sample 4

Q: What about the “caspase 3 activity” value ([3]; RCCS+ laminin: preincubated 3 hours with 50 μg/ml peptide, 7 days RCCS, vs Dish control, p<0.05, n=4) of the same substance?
A: significantly less caspase 3 activity than did the dish-cultured islets

Q: And the ATP levels (human pancreatic islets [4]; RCCS+laminin (Sample 5): preincubated with peptide, 7 days RCCS, vs Dish control (Sample 2), p<0.05, n=4)?
A: significantly higher ATP levels

Q: What about the ATP levels (human pancreatic islets [4]; Sample 3: preincubated 3 hours with 50 μg/ml peptide, 7 days petri dish, vs Dish control (100%), n=4) of the same substance?
A: tended to have higher ATP levels but the values did not have a p value less than 0.05
